The species named for test [1] is Oryctolagus cuniculus. To be noted: dose 30 mg/kg.
Description: Variation of intraocular pressure in sixth day at a dose of 30 mg/kg by systemic administration in hypertensive rabbits
The species entered for test [2] is Oryctolagus cuniculus. To be noted: dose 30 mg/kg. The source holds these as a separate data set.
Description: Variation of intraocular pressure in second day at a dose of 30 mg/kg by systemic administration in hypertensive rabbits
Another test deals with Carbonic anhydrase 9 (Homo sapiens, UniProt Q16790).
For test [3], the system named is Oryctolagus cuniculus. Nature of the test: Variation of intraocular pressure in fifth day at a dose of 30 mg/kg by systemic administration in hypertensive rabbits. In kind it is functional, Eye.
A further test has as its target Carbonic anhydrase 2 (Homo sapiens, UniProt P00918).
The species entered for test [4] is Oryctolagus cuniculus. The note with it: dose 30 mg/kg. The source holds these as a separate data set.
Description: Variation of intraocular pressure in day one at a dose of 30 mg/kg by systemic administration in hypertensive rabbits
The species named for test [5] is Oryctolagus cuniculus. To be noted: dose 30 mg/kg. This is another data set of the same source.
Description: Variation of intraocular pressure in fourth day at a dose of 30 mg/kg at a dose by systemic administration in hypertensive rabbits
Test [6] is filed under the species Oryctolagus cuniculus. To be noted: dose 30 mg/kg. This is another data set of the same source.
Description: Variation of intraocular pressure in third day at a dose of 30 mg/kg by systemic administration in hypertensive rabbits
In a further test the target is T1, Carbonic anhydrase 4 (Bos taurus, UniProt Q95323).
T1 sequence (Q95323 whole entry): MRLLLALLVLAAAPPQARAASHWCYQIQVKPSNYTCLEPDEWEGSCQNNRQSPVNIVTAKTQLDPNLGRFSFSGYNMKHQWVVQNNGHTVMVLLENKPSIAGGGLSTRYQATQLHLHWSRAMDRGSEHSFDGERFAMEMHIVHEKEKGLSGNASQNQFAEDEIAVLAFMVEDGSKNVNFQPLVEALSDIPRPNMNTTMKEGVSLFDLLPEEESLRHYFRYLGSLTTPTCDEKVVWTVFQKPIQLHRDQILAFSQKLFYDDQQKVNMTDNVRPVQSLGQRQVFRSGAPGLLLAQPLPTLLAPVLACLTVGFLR

Another test deals with Carbonic anhydrase 1 (Homo sapiens, UniProt P00915).
Chain of Carbonic anhydrase 1 (P00915 whole entry): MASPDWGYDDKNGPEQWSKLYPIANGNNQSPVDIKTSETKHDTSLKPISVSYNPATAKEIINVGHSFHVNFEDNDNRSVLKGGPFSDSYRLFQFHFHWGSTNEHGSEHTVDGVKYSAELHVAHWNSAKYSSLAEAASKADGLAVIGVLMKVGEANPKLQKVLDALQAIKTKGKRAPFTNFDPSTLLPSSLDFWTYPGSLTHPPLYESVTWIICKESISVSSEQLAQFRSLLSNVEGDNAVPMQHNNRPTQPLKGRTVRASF
The species entered for test [7] is Oryctolagus cuniculus. To be noted: dose 30 mg/kg. This is another data set of the same source.
Description: Variation of intraocular pressure in seventh day at a dose of 30 mg/kg by systemic administration in hypertensive rabbits

pIC50: −log10 of the molar value. A value given as a limit tells only on which side of the number the result lay.

Description for Carbonic anhydrase 1: Inhibitory activity against human carbonic anhydrase I was determined
Description for Carbonic anhydrase 2: Inhibitory activity against human carbonic anhydrase II was determined
Description for Carbonic anhydrase 4: Inhibitory activity against bovine carbonic anhydrase IV was determined
Description for Carbonic anhydrase 9: Inhibitory activity against human carbonic anhydrase IX was determined

As usually defined, the pIC50 is the negative decadic logarithm of the IC50, by convention in mol/L. In the case of `CS(=O)(=O)c1ccc(-n2cc(-c3ccc(F)cc3)c(C(F)(F)F)n2)cc1`, the “Delta IOP” value came to 0.34 mmHg in the test filed under Oryctolagus cuniculus [1]; 0.31 mmHg in the test listed under Oryctolagus cuniculus [2]; 0.16 mmHg in the test on Oryctolagus cuniculus [3]; 0.14 mmHg in the test filed under Oryctolagus cuniculus [4]; 0.25 mmHg in the test listed under Oryctolagus cuniculus [5]; 0.22 mmHg in the test listed under Oryctolagus cuniculus [6]. For the same compound, the “Delta IOP” value in the test listed under Oryctolagus cuniculus [7] was 0.16 mmHg. For the same compound, the pIC50 at Carbonic anhydrase 9, against Carbonic anhydrase 2, on Carbonic anhydrase 4 and at Carbonic anhydrase 1 was under 4.00 in each case.
On to `Cc1ccc(-c2cc(C(F)(F)F)nn2-c2ccc(S(N)(=O)=O)cc2)cc1` [CELECOXIB], for which, on Carbonic anhydrase 9, the pIC50 was 7.80.
As for `COc1ccc(-n2nc(C(F)(F)F)cc2-c2ccc(Cl)cc2)cc1` [SC-560], the “Delta IOP” value in the test filed under Oryctolagus cuniculus [1] worked out at 0.41 mmHg; in the test filed under Oryctolagus cuniculus [2] it was 0.017 mmHg; in the test with Oryctolagus cuniculus [3], 0.3 mmHg; in the test filed under Oryctolagus cuniculus [4], 0.23 mmHg; in the test filed under Oryctolagus cuniculus [5], 0.34 mmHg; in the test listed under Oryctolagus cuniculus [6], 0.25 mmHg. Also, the “Delta IOP” value in the test listed under Oryctolagus cuniculus [7] worked out at 0.52 mmHg. The negative-log IC50 (pIC50) against Carbonic anhydrase 9, against Carbonic anhydrase 2, at Carbonic anhydrase 4 and against Carbonic anhydrase 1 was under 4.00 in each case.
